# How the values were obtained:
# orthotopic HCA-1 tumor [1] = assay: Syngeneic orthotopic murine HCC model, sorafenib and AMD3100-modified nanoparticle; format: in vivo, C3H mice; details: sorafenib 50 mg/kg daily for 14 days
# Text: 4 to 6-week-old male C3H/HeNCrNarl mice (weight: 25 g) were purchased from National Laboratory Animal Center (Taipei, Taiwan). In order to create hepatocellular carcinoma model, every mouse was orthotopically injected with HCA-1 cells (10^6 cells per mouse) in liver.
# On the other hand, HCA-1 cells were intrahepatic ally implanted into C3H mice to establish a syngeneic orthotopic murine HCC model. For evaluation of mean vessel density (MVD) and hypoxic induction, mice without any treatment were defined as Negative control group, while mice treated with free sorafenib alone were defined as Positive control group. Mice treated with free sorafenib and free AMD3100 were defined as Comparative. For the experimental groups, mice treated with AMD3100-modified lipid-coated nanoparticle of the present invention were defined as Experimental group 1, while mice treated with sorafenib and AMD3100-modified lipid-coated nanoparticle of the present invention together were defined as Experimental group 2.
# After HCC tumors were established, mice were treated according to the above mentioned Positive control group, Comparative group, Experimental group 1, and Experimental group 2 with sorafenib given at a dose of 50 mg/kg daily for 14 days. […] On the other hand, the change in SDF1α expression as a consequence of treatment-induced hypoxia was examined.
# JHH-7 cells [2] = assay: Cell viability under sorafenib with recombinant SDF1α; format: cell-based, human; details: JHH-7, in the presence of sorafenib
# Text: (§1) To examine cell viability, cells without any treatment were defined as Negative control group, while cells treated with free sorafenib alone were defined as Positive control group. Meanwhile, cells treated with sorafenib in the presence of recombinant SDF1α were defined as Comparative group 1, while cells treated with free sorafenib and free AMD3100 were defined as Comparative group 2. Regarding the experimental groups, cells treated with sorafenib-loaded lipid-coated nanoparticle without AMD3100 modification were defined as Experimental group 1, while cells treated with sorafenib-loaded AMD3100-modified lipid-coated nanoparticle were defined as Experimental group 2.
# (§2) To determine whether the SDF1α/CXCR4 axis mediates HCC resistance to sorafenib treatment, both murine HCC (HCA-1) and human HCC (JHH-7) cell lines were firstly exposed to recombinant SDF1α in the presence of sorafenib.
# HCA-1 cells [3] = assay: as above; format: cell-based, murine; details: HCA-1, in the presence of sorafenib
# Text: as §1, §2
# HCA-1 cells [4] = assay: In vitro cytotoxicity, MTT assay; format: cell-based, murine; details: HCA-1, 48 hours, sorafenib 0.25 μM, AMD3100 0.2 μM
# Description: (§3) For cytotoxicity examination of the CXCR4-targeted lipid-coated PLGA nanoparticle of the present invention, HCA-1 or JHH-7 cells were seeded in 96-well transparent plates (Costar, Ill., USA) at a density of 1000 cells/well in a medium and were incubated for 12 hours. After confluency reached 10%, the medium was replaced with RPMI-1640 media containing DOPSor, ADOPSor, free DOPA, ADOP, or DOPSor with free AMD3100 at the equivalent sorafenib concentration of 0.25 μM. […] All cells were incubated for 48 hours. After incubation for another 3 hours, MTT assay was utilized to subsequently measure the cell viability. The absorbance of the wells was measured by Multiskan (Thermo, USA) at 570 nm and background absorbance was subtracted from all data. The percentage of cell viability was calculated by normalization of all values to the control group.
# JHH-7 cells [5] = assay: In vitro cytotoxicity, MTT assay; format: cell-based, human; details: JHH-7, 48 hours, sorafenib 0.25 μM, AMD3100 0.2 μM
# Description: as §3
# [6] = In vivo pharmacokinetics of C6 in blood; design: species or system C3H mice; details: 2 mg/kg, mice with orthotopic HCA-1 tumor
# Description: To examine the pharmacokinetics profile in vivo, firstly, C6-loaded lipid-coated PLGA nanoparticle without AMD3100 modification (DOP-C6) and C6-loaded AMD3100-modified lipid-coated PLGA nanoparticle (ADOP-C6) were prepared according to the method set forth above. Then, C3H mice with orthotopic HCA-1 tumor were administered with free C6, DOP-C6 and ADOP-C6 at a dosage of 2 mg/kg. 40 μl of blood was collected from the tail artery and mixed with 10 μL of EDTA (50 mM) at different periods of time. The fluorescence intensity was measured by the plate reader (Fluoroskan Ascent FL, Thermo Scientific) at an excitation wavelength of 485 nm and an emission wavelength of 538 nm C6 concentration was normalized and calculated from a standard curve obtained by spiking known amounts of free C6 or C6-loaded nanoparticles in blood obtained from uninjected mice.
# VEGF [7] = assay: VEGF expression by western blot; format: cell-based, human; details: JHH-7
# Text: (§4) Firstly, cells treated with free control siRNA were defined as Control group, while cells treated with free anti-VEGF siRNA were defined as Comparative group. Cells treated with anti-VEGF siRNA-loaded lipid-coated nanoparticle without AMD3100 modification were defined as Experimental group 1, while cells treated with anti-VEGF siRNA-loaded AMD3100-modified lipid-coated nanoparticle were defined as Experimental group 2.
# VEGF [8] = assay: VEGF expression by western blot; format: cell-based, murine; details: HCA-1
# Text: as §4
# orthotopic HCA-1 tumor [9] = assay: In vivo tumor uptake of fluorescence-labeled siRNA; design: species or system mice; details: intravenous injection, after 4 hours
# Description: Next, the uptake of the fluorescence-labeled siRNA in orthotopic HCA-1 tumor models via intravenous injection was evaluated after 4 hours.
compound,measurement,setting,value
"CNC(=O)c1cc(Oc2ccc(NC(=O)Nc3ccc(Cl)c(C(F)(F)F)c3)cc2)ccn1 [sorafenib, Sorafenib]",carbonic anhydrase IX (CAIX) expression (hypoxia),orthotopic HCA-1 tumor [1],increase of carbonic anhydrase IX (CAIX) expression
same,increase in SDF1α expression in HCA-1 tumor tissues,orthotopic HCA-1 tumor [1],3 fold
same,increase in number of F4/80+ macrophages,orthotopic HCA-1 tumor [1],over 3 fold
same,lung metastasis,orthotopic HCA-1 tumor [1],Neither the Positive control group nor the Comparative group showed a reduction in metastasis formation
same,mean vessel density (MVD),orthotopic HCA-1 tumor [1],significant reduction of MVD
same,tumor growth,orthotopic HCA-1 tumor [1],moderate tumor growth inhibitory effect
SDF1α,cell viability,JHH-7 cells [2],increased the viability
same,cell viability,HCA-1 cells [3],increased the viability
c1cc(CN2CCCNCCNCCCNCC2)ccc1CN1CCCNCCNCCCNCC1 [AMD3100],cytotoxicity / cell viability,HCA-1 cells [4],did not have a cytotoxic effect
same,cytotoxicity / cell viability,JHH-7 cells [5],did not have a cytotoxic effect
"CCN(CC)c1ccc2cc(-c3nc4ccccc4s3)c(=O)oc2c1 [free C6, coumarin 6]",C6 in blood after 1 hour,[6],cleared rapidly from the blood after 1 hour
same,C6 in blood after 4 hours,[6],almost cleared out after 4 hours
free anti-VEGF siRNA: anti-VEGF siRNA with sequence 5′-AUGUGAAUGCAGACCAAAGAA-3′ (chemistry not given here),VEGF expression,VEGF [7],no suppression of VEGF expression
same,VEGF expression,VEGF [8],no suppression of VEGF expression
same,uptake of fluorescence-labeled siRNA in orthotopic HCA-1 tumor,orthotopic HCA-1 tumor [9],intracellular uptake can hardly be detected

# Source: patent publication US9415011B1, “Method for treatment of liver cancer and inhibition of metastasis with CXC-chemokine-receptor 4-targeted nanoparticle” (National Tsing Hua University, priority 2015, dated 2016)
